The source of these data is patent publication US20180305345A1 (priority 2015, published 2018).

Experiment [1] deals with VSVΔ51-resistant HT29 cells (human colon carcinoma). The arrangement: species or system Balb/c mice. As to conditions: in vivo.
Experiment [2] has as its system VSVΔ51 in 786-0 cells. It is filed as cell-based, human.

Consider `O=C1C(Cl)=C(Cl)C(O)N1CCN1CCOCC1` (stereo not shown) [Compound 28, 3,4-dichloro-5-hydroxy-1-(2-morpholinoethyl)-1H-pyrrol-2(5H)-one], for which the mouse survival result in experiment [1] is listed as “increased mouse survival rates”. Besides, the tumor growth result in experiment [1] (mouse) was “reduced tumor growth”. On to `O=C1C(Cl)=C(Cl)C(O)N1Cc1ccccc1` (stereo not drawn) [Compound 10, α,β-dichloro-γ-hydroxy-N-benzyl-crotonic lactam], for which the “effect on viral growth after removal of compound at various times” value in experiment [2] is “rapid and sustained”. `O=C1OC(c2ccccc2)C(Cl)=C1Cl` (stereo not shown) [Compound 1, 3,4-dichloro-5-phenyl-2,5-dihydrofuran-2-one, reference compound]: in experiment [2], the “effect on viral growth after removal of compound at various times” value is “rapid and sustained”.
